Earlier results in US6444811B1, “Pyrazinones, compositions containing such compounds and methods of use” (Merck Frosst Canada & Co., priority 1999, dated 2002).

What was measured:
caspase-1 = molecular target: T1, caspase-1 (Homo sapiens, UniProt P29466)
T1 sequence (P29466 120-297 limits assumed): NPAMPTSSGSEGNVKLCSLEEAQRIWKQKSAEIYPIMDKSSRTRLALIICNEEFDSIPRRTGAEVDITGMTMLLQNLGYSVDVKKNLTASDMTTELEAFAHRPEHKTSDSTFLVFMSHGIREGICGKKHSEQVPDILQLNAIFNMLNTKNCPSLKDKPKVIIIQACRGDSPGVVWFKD
T1 sequence (P29466 317-404 limits assumed): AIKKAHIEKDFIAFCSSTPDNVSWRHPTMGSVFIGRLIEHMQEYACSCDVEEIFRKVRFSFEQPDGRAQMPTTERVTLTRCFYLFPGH

caspase-3 = molecular target: T2, caspase-3 (Homo sapiens, UniProt P42574)
T2 sequence (P42574 29-175 limits assumed): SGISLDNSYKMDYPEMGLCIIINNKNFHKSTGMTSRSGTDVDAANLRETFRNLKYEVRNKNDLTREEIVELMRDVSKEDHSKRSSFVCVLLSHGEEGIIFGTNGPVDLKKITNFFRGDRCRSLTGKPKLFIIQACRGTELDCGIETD
T2 sequence (P42574 176-277 limits assumed): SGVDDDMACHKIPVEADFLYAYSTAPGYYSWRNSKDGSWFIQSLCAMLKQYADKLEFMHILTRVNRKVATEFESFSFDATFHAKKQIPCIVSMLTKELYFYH

## Ac-YVAD-CHO
caspase-1
  Ki: < 0.001 µM
caspase-1; slow-binding time-dependent inhibition
  kon caspase-1: 380000 M⁻¹ s⁻¹
caspase-3
  Ki: 12 µM
